Experimental data as given in ChEMBL document CHEMBL1250448, “Inhibitor hijacking of Akt activation” (Nat Chem Biol, 2009).
Activity calls are given as the source filed them. No cut-off for these calls is given here.

Columns and labels:
[1] = test system: RAC-alpha serine/threonine-protein kinase (Homo sapiens), P31749 [M227G]; test: Induction of myristoylated AKT1 M227G Ser473 hyperphosphorylation expressed in MCF7 cells at 2.5 uM after 30 mins by immunoblotting; assay type: cell-based
[2] = test system: RAC-alpha serine/threonine-protein kinase (Homo sapiens), P31749 [M227G]; test: Induction of myristoylated AKT1 M227G Ser473 hyperphosphorylation expressed in MiaPaCa2 cells at 2.5 uM after 30 mins by immunoblotting; assay type: cell-based
PC-3 [3] = test: Induction of myristoylated AKT2 M225G and kinase dead D289A mutant Thr308 hyperphosphorylation expressed in PC3 cells at 2.5 uM after 30 mins by immunoblotting; assay type: cell-based
[4] = test system: RAC-alpha serine/threonine-protein kinase (Homo sapiens), P31749 [M227G]; test: Induction of myristoylated AKT1 M227G mutant Thr308 hyperphosphorylation expressed in HEK293T cells at 2.5 uM after 30 mins pretreated with PDK1 inhibitor BX-795 for 10 mins before compound addition by immunoblotting; assay type: cell-based; conditions: HEK-293T
MiaPaCa2 [5] = test: Induction of myristoylated AKT2 M225G and kinase dead D289A mutant Thr308 hyperphosphorylation expressed in MiaPaCa2 cells at 2.5 uM after 30 mins by immunoblotting; assay type: cell-based
[6] = test system: RAC-alpha serine/threonine-protein kinase (Homo sapiens), P31749 [M227G]; test: Induction of myristoylated AKT1 M227G Thr308 hyperphosphorylation expressed in MCF7 cells at 2.5 uM after 30 mins by immunoblotting; assay type: cell-based
MiaPaCa2 [7] = test: Induction of myristoylated AKT2 M225G mutant Ser473 hyperphosphorylation expressed in MiaPaCa2 cells at 2.5 uM after 30 mins by immunoblotting; assay type: cell-based
MCF7 [8] = test: Induction of myristoylated AKT2 M225G mutant Thr308 hyperphosphorylation expressed in MCF7 cells at 2.5 uM after 30 mins by immunoblotting; assay type: cell-based
[9] = test system: RAC-alpha serine/threonine-protein kinase (Homo sapiens), P31749 [M227G]; test: Induction of myristoylated AKT1 M227G mutant Thr308 hyperphosphorylation expressed in HEK293T cells at 2.5 uM after 30 mins pretreated with pan-PI3K inhibitor PIK90 for 10 mins before compound addition by immunoblotting; assay type: cell-based; conditions: HEK-293T
[10] = test system: RAC-alpha serine/threonine-protein kinase (Homo sapiens), P31749 [M227G]; test: Induction of myristoylated AKT1 M227G mutant Ser473 hyperphosphorylation expressed in HEK293T cells at 2.5 uM after 30 mins by immunoblotting; assay type: cell-based; conditions: HEK-293T
[11] = test system: RAC-alpha serine/threonine-protein kinase (Homo sapiens), P31749 [M227G]; test: Increase in catalytic activity of compound exposed AKT1 M227G mutant expressed in HEK293 cells measured post compound dissociation by in vitro immunoprecipitation kinase assay relative to untreated AKT1 M227G mutant; conditions: HEK-293
[12] = test system: RAC-alpha serine/threonine-protein kinase (Homo sapiens), P31749 [M227G]; test: Induction of mCherry tagged AKT1 M227G Thr308 hyperphosphorylation expressed in HEK293 cells at 2.5 uM after 30 mins by immunoblotting; assay type: cell-based
HEK-293T [13] = test: Induction myristoylated AKT2 M225G mutant Ser473 hyperphosphorylation expressed in HEK293T cells at 2.5 uM after 30 mins by immunoblotting; assay type: cell-based
[14] = test system: RAC-alpha serine/threonine-protein kinase (Homo sapiens), P31749 [M227G]; test: Induction of AKT1 M227G Ser473 hyperphosphorylation expressed in HEK293 cells at 2.5 uM after 30 mins pretreated with allosteric AKT inhibitor Akti-1,2 10 mins before compound addition by immunoblotting
MCF7 [15] = test: Induction of myristoylated AKT2 M225G and kinase dead D289A mutant Thr308 hyperphosphorylation expressed in MCF7 cells at 2.5 uM after 30 mins by immunoblotting; assay type: cell-based
HEK-293T [16] = test: Induction of myristoylated AKT3 M229G mutant Thr308 hyperphosphorylation expressed in HEK293T cells at 2.5 uM after 30 mins pretreated with mTOR kinase inhibitor PP242 for 10 mins before compound addition by immunoblotting; assay type: cell-based
[17] = test system: RAC-alpha serine/threonine-protein kinase (Homo sapiens), P31749 [M227G,R25C]; test: Induction of myristoylated AKT1 M227G and R25C mutant Ser473 hyperphosphorylation expressed in HEK293T cells at 2.5 uM after 30 mins by immunoblotting; assay type: cell-based; conditions: HEK-293T
[18] = test system: RAC-alpha serine/threonine-protein kinase (Homo sapiens), P31749 [M227G,D292A]; test: Induction of myristoylated AKT1 M227G and kinase dead D292A mutant Ser473 hyperphosphorylation expressed in PC3 cells at 2.5 uM after 30 mins by immunoblotting; assay type: cell-based; conditions: PC-3
[19] = test system: RAC-alpha serine/threonine-protein kinase (Homo sapiens), P31749 [M227G]; test: Inhibition of myristoylated AKT1 M227G mutant expressed in HEK293T cells assessed as reduction of GSK3-beta Ser9 phosphorylation after 30 mins by immunoblotting; assay type: cell-based; conditions: HEK-293T
MiaPaCa2 [20] = test: Induction of myristoylated AKT2 M225G mutant Thr308 hyperphosphorylation expressed in MiaPaCa2 cells at 2.5 uM after 30 mins by immunoblotting; assay type: cell-based
HEK-293T [21] = test: Induction of myristoylated AKT3 M229G mutant Thr308 hyperphosphorylation expressed in HEK293T cells at 2.5 uM after 30 mins by immunoblotting; assay type: cell-based
[22] = test system: RAC-alpha serine/threonine-protein kinase (Homo sapiens), P31749 [M227G]; test: Induction of myristoylated AKT1 M227G mutant Thr308 hyperphosphorylation expressed in HEK293 cells at 2.5 uM after 30 mins by immunoblotting; conditions: HEK-293
[23] = molecular target: T1, RAC-alpha serine/threonine-protein kinase (Homo sapiens, UniProt P31749); test: Induction of flag-tagged wild type AKT1 Ser473 hyperphosphorylation expressed in HEK293 cells coexpressing HA-tagged AKT1 M227G after 30 mins by immunoblotting
MCF7 [24] = test: Induction of myristoylated AKT2 M225G mutant Ser473 hyperphosphorylation expressed in MCF7 cells at 2.5 uM after 30 mins by immunoblotting; assay type: cell-based
[25] = test system: RAC-alpha serine/threonine-protein kinase (Homo sapiens), P31749 [M227G]; test: Induction of myristoylated AKT1 M227G mutant Ser473 hyperphosphorylation expressed in HEK293 cells after 30 mins by immunoblotting; conditions: HEK-293
[26] = test system: RAC-alpha serine/threonine-protein kinase (Homo sapiens), P31749 [M227G]; test: Induction of membrane localized myristoylated AKT1 M227G mutant Thr308 hyperphosphorylation expressed in HEK293T cells at 2.5 uM after 30 mins by immunoblotting; assay type: cell-based; conditions: HEK-293T
PC-3 [27] = test: Induction of myristoylated AKT2 M225G and kinase dead D289A mutant Ser473 hyperphosphorylation expressed in PC3 cells at 2.5 uM after 30 mins by immunoblotting; assay type: cell-based
HEK-293T [28] = test: Induction of myristoylated AKT3 M229G mutant Thr308 hyperphosphorylation expressed in HEK293T cells at 2.5 uM after 30 mins pretreated with PDK1 inhibitor BX-795 for 10 mins before compound addition by immunoblotting; assay type: cell-based
[29] = molecular target: Serine/threonine-protein kinase 26 (Homo sapiens) (UniProt Q9P289); test: Inhibition of MST4 at 1 uM in presence of 100 uM ATP by Select Screen kinase assay relative to untreated control
[30] = molecular target: RAC-alpha serine/threonine-protein kinase (Rattus norvegicus) (UniProt P47196); test: Induction AKT1 Ser473 hyperphosphorylation in insulin-induced rat L6 cells after 20 mins before insulin stimulation by immunoblotting; assay type: cell-based
[31] = molecular target: T1, RAC-alpha serine/threonine-protein kinase; test: Inhibition of AKT1

RAC-alpha serine/threonine-protein kinase (Homo sapiens), P31749 [M227G], sequence (P31749 whole entry M227G): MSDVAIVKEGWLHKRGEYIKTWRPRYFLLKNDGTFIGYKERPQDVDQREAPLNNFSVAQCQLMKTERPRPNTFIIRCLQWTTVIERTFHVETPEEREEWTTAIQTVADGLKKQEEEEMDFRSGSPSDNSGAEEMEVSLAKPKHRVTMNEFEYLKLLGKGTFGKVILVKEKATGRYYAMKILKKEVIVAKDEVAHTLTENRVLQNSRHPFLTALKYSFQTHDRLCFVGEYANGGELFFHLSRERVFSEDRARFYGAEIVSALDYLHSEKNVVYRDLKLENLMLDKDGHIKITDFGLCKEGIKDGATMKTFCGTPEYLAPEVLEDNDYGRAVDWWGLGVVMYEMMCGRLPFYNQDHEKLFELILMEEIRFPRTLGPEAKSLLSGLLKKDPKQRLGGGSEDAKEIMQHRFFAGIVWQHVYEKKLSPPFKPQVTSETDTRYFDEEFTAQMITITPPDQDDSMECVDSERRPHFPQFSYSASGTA
T1 sequence (P31749 whole entry): as the sequence (P31749 whole entry M227G) above, with G227M counted along it
Serine/threonine-protein kinase 26 (Homo sapiens), sequence (Q9P289 2-416 limits assumed): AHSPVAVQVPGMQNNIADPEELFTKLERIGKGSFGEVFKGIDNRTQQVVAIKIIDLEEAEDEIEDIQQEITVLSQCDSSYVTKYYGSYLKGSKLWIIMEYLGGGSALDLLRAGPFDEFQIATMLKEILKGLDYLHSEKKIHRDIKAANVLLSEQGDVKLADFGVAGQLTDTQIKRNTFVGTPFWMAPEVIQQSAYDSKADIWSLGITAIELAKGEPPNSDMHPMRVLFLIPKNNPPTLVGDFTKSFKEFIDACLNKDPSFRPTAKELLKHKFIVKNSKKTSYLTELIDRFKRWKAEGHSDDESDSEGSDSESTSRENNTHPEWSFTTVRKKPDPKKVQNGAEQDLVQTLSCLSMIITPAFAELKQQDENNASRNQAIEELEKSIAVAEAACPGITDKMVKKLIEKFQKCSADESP
RAC-alpha serine/threonine-protein kinase (Homo sapiens), P31749 [M227G,D292A], sequence (P31749 whole entry M227G/D292A): as the sequence (P31749 whole entry M227G) above, with D292A counted along it
RAC-alpha serine/threonine-protein kinase (Rattus norvegicus), sequence (P47196 whole entry): as the sequence (P31749 whole entry M227G) above, with S2N, D46E, A50S, K112R, E117T, S137A, G227M, K389T, G410N, H415D counted along it
RAC-alpha serine/threonine-protein kinase (Homo sapiens), P31749 [M227G,R25C], sequence (P31749 whole entry R25C/M227G): as the sequence (P31749 whole entry M227G) above, with R25C counted along it

Q: For `CCCc1cc(-c2cncc(OC[C@@H](N)Cc3c[nH]c4ccccc34)c2)cc2c(C)n[nH]c12`, which Activity [1] is on record?
A: Active

Q: And the Activity [2]?
A: Active

Q: And the Activity (PC-3 [3])?
A: Active

Q: What about the Activity [4] of the same compound?
A: inactive

Q: What about the Activity (MiaPaCa2 [5]) of the same compound?
A: Active

Q: What about the Activity [6] of the same compound?
A: Active

Q: What about the Activity (MiaPaCa2 [7]) of the same compound?
A: Active

Q: What about the Activity (MCF7 [8]) of the same compound?
A: Active

Q: What about the Activity [9] of the same compound?
A: inactive

Q: And the Activity [10]?
A: Active

Q: And the fold change (FC) [11]?
A: 10

Q: What about the Activity [12] of the same compound?
A: Active

Q: What about the Activity (HEK-293T [13]) of the same compound?
A: Active

Q: What about the Activity [14] of the same compound?
A: inactive

Q: And the Activity (MCF7 [15])?
A: Active

Q: What about the Activity (HEK-293T [16]) of the same compound?
A: Active

Q: And the Activity [17]?
A: inactive

Q: And the Activity [18]?
A: Active

Q: And the inhibition [19]?
A: Active

Q: What about the Activity (MiaPaCa2 [20]) of the same compound?
A: Active

Q: And the Activity (HEK-293T [21])?
A: Active

Q: What about the Activity [22] of the same compound?
A: Active

Q: What about the Activity [23] of the same compound?
A: inactive

Q: And the Activity (MCF7 [24])?
A: Active

Q: What about the Activity [25] of the same compound?
A: Dose-dependent effect

Q: And the Activity [26]?
A: Active

Q: What about the Activity (PC-3 [27]) of the same compound?
A: Active

Q: What about the Activity (HEK-293T [28]) of the same compound?
A: inactive

Q: What does the source list for `COc1ccccc1N1CCN(c2ncnc3[nH]nc(Br)c23)CC1`?
A: inhibition [29]: 11%; Activity [30]: inactive; IC50 [31]: 22 µM
